Experimental data reported in patent US20190169218A1, “AMPHIPATHIC COMPOUND HAVING NOVEL PENTA-SACCHARIDE HYDROPHILIC GROUP AND USE THEREOF” (Industry-University Cooperation Foundation Hanyang …, priority 2016, published 2019).

Legend:
[1] = target: T1, human β2 adrenergic receptor (β2AR) (Homo sapiens, UniProt P07550); test: β2AR activity by [3H]-dihydroalprenolol radioactive ligand binding assay; format: biochemical; settings: for long-term β2AR activity ([3H]-DHA binding): 3 or 5 days at room temperature
T1 construct: Flag; made in house
T1 sequence (P07550 whole entry): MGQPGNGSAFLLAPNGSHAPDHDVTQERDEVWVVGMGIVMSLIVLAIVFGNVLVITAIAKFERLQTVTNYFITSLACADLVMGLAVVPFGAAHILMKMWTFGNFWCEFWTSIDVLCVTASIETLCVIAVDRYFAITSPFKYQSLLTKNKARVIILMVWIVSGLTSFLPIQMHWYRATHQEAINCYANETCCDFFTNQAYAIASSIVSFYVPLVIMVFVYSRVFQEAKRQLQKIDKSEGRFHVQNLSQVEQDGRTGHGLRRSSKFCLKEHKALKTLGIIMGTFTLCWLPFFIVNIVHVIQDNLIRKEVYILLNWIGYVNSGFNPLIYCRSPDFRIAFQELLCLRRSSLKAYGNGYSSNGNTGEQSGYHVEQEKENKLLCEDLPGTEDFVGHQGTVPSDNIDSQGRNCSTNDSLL
Method: The membrane protein stabilizing ability of receptors (mBBr-β2ARs) solubilized in PSAs or PSEs was evaluated by measuring the binding activity of the receptors to [^3H]-dihydroalprenolol ([^3H]-DHA).
Specifically, radioactive ligand binding assay was performed as follows. β2ARs purified with 0.1 wt % DDM was concentrated to about 10 mg/mL (approximately 200 μM). β2ARs purified with DDM were used to prepare a master binding mixture containing 10 nM [^3H]-dihydroalprenolol (DHA), which was dissolved in 0.2 wt % of DDM, PSA or PSE and supplemented with 0.5 mg/mL BSA. At a concentration of 0.2 pmol, the activity of the receptors purified with the amphipathic compounds was monitored at regular intervals over a 4-day incubation period. Protein samples were incubated on ice for 2 days and then at room temperature for 2 days. Receptor activity was measured by binding assay for dissolved radioactive ligands. The receptors purified with DDM or a novel formulation (PSA-C11, PSE-C11 or PSE-C13) were incubated with 10 nM [^3H]-DHA at room temperature for 30 minutes. The mixture was loaded onto a G-50 column, a solution passed through the column was collected in 1 mL of a binding buffer (100 mM NaCl and 20 mM HEPES (pH 7.5) supplemented with 0.5 mg/mL BSA and 20×CMC amphipathic compounds), and 15 mL of a scintillation fluid was added to the solution. Receptor-bound [^3H]-DHA was measured using a scintillation counter (Beckman). Non-specific binding of [^3H]-DHA was measured by adding 1 μM alprenolol (Sigma) to the same reaction mixture. The binding degree of the receptors to [^3H]-DHA was represented by a column graph.
The ability of TPSs (TPS-As, TPS-Es and TPS-ELs) to stabilize the structures of human β2 adrenergic receptors (β2ARs) and G protein-coupled receptors (GPCRs) was measured. That is, DDM-purified receptors were diluted with a buffer solution containing only each of the TPSs without cholesteryl hemisuccinate (CHS) or a buffer solution containing CHS and DDM. The final concentration of the compounds was CMC+0.2wt %, and the binding activity of the receptors to ligands was evaluated by measuring the degree of binding of the receptors to [^3H]-dihydroalprenolol ([^3H]-DHA).
Specifically, radioactive ligand binding assay was performed as follows. β2ARs were purified with 0.1 wt % DDM (D. M. Rosenbaum et al., Science, 2007, 318, 1266-1273.) and was concentrated to about 10 mg/mL (approximately 200 μM). β2ARs purified with DDM were used to prepare a master binding mixture containing 10 nM [^3H]-dihydroalprenolol (DHA), which was dissolved in 0.2% amphipathic compounds (DDM or TPSs) and supplemented with 0.5 mg/mL BSA. The activity of the receptors purified with the amphipathic compounds was monitored at regular intervals over a 3- to 5-day incubation period. The receptors purified with DDM or TPSs were incubated with 10 nM [^3H]-DHA at room temperature for 30 minutes. The mixture was loaded onto a G-50 column, a solution passed through the column was collected in 1 mL of a binding buffer (100 mM NaCl and 20 mM HEPES (pH 7.5) supplemented with 0.5 mg/mL BSA and 20×CMC of each amphipathic compound), and 15 mL of a scintillation fluid was added to the solution. Receptor-bound [^3H]-DHA was measured using a scintillation counter (Beckman). The binding degree of the receptors to [^3H]-DHA was represented by a column graph.

[2] = critical micelle concentration (CMC) by hydrophobic fluorescent staining with diphenylhexatriene (DPH); format: physicochemical
How it was run: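 CMC determined by hydrophobic fluorescent staining with diphenylhexatriene (DPH); micelle hydrodynamic radius measured separately by dynamic light scattering at 1.0 wt %, with DDM as reference detergent.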

[3] = first two days of incubation at 0° C.

CCCCCCCCCCCC(CCCCCCCCCCC)CO[C@@H]1OC(CO[C@@H]2OC(CO)[C@@H](O)C(O)C2O)[C@@H](O[C@@H]2OC(CO)[C@@H](O)C(O)C2O)C(O[C@@H]2OC(CO)[C@@H](O)C(O)C2O)C1O[C@@H]1OC(CO)[C@@H](O)C(O)C1O (some centres unmarked) [PSA-C11]
β2AR activity ([3H]-DHA binding) during incubation [1, 3]: well maintained the initial activity thereof
CMC [2]: ~0.007 mM
CMC (wt %) [2]: ~0.0008 wt %

CCCCCCCCCCCOCC(COCCCCCCCCCCC)O[C@@H]1OC(CO[C@@H]2OC(CO)[C@@H](O)C(O)C2O)[C@@H](O[C@@H]2OC(CO)[C@@H](O)C(O)C2O)C(O[C@@H]2OC(CO)[C@@H](O)C(O)C2O)C1O[C@@H]1OC(CO)[C@@H](O)C(O)C1O (some centres unmarked) [PSE-C11]
initial β2AR activity ([3H]-DHA binding) ([1]; 0.2 wt % DDM, PSA or PSE): higher initial activity than proteins solubilized in DDM
β2AR activity ([3H]-DHA binding) during incubation [1, 3]: well maintained the initial activity thereof
β2AR activity ([3H]-DHA binding) during incubation ([1]; incubation at room temperature (days 3-4)): the best
CMC [2]: ~0.004 mM
CMC (wt %) [2]: ~0.0005 wt %

CCCCCCCCCCCCCOCC(COCCCCCCCCCCCCC)O[C@@H]1OC(CO[C@@H]2OC(CO)[C@@H](O)C(O)C2O)[C@@H](O[C@@H]2OC(CO)[C@@H](O)C(O)C2O)C(O[C@@H]2OC(CO)[C@@H](O)C(O)C2O)C1O[C@@H]1OC(CO)[C@@H](O)C(O)C1O (some centres unmarked) [PSE-C13]
initial β2AR activity ([3H]-DHA binding) ([1]; 0.2 wt % DDM, PSA or PSE): higher initial activity than proteins solubilized in DDM
β2AR activity ([3H]-DHA binding) during incubation [1, 3]: well maintained the initial activity thereof
CMC [2]: ~0.001 mM
CMC (wt %) [2]: ~0.0001 wt %

CCCCCCCCOCC(COCCCCCCCC)(COCCCCCCCC)CO[C@@H]1OC(CO[C@@H]2OC(CO)[C@@H](O)C(O)C2O)[C@@H](O[C@@H]2OC(CO)[C@@H](O)C(O)C2O)C(O[C@@H]2OC(CO)[C@@H](O)C(O)C2O)C1O[C@@H]1OC(CO)[C@@H](O)C(O)C1O (some centres unmarked) [TPS-E8]
long-term β2AR activity ([3H]-DHA binding) [1]: significantly better than that of DDM
initial β2AR activity ([3H]-DHA binding) ([1]; TPSs at CMC+0.2wt %, without CHS): the most excellent
CMC [2]: ~0.007 mM
CMC (wt %) [2]: ~0.0009 wt %

CCCCCCCCCCCCO[C@@H]1O[C@H](CO)[C@@H](O[C@H]2O[C@H](CO)[C@@H](O)[C@H](O)[C@H]2O)[C@H](O)[C@H]1O [DDM, n-dodecyl-β-D-maltopyranoside, reference compound]
long-term β2AR activity ([3H]-DHA binding) [1]: the activity was rapidly lost over time
β2AR activity ([3H]-DHA binding) during incubation [1, 3]: well maintained the initial activity thereof
CMC [2]: ~0.17 mM
CMC (wt %) [2]: ~0.0087 wt %
